The values below come from patent publication US10975037B2 (priority 2018, dated 2021).

Where two headings read alike, the source gives them in different places.

One assay has as its target RORγT (Mus musculus (Mouse), UniProt P51450). The conditions noted are these: mice; cited from earlier work.
A further assay has as its target full-length human RORγt (Homo sapiens (Human), UniProt P51449). Description: RORγt (full-length human) reporter assay, conditions A or B, HEK293T cells. In kind it is cell-based. The conditions noted are these: for IC50: RORγt (FL) Reporter Assay A or B, IC50, HEK293T cells; for inhibition at 0.67 µM: 0.67 μM compound concentration (footnote ****). The procedure, abridged:
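After 16–20 h, dual firefly/Renilla luciferase luminescence was read. Firefly signal was normalized to DMSO and saturating reference compound, then to Renilla, and fitted for IC50; % inhibition is versus DMSO.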

Assay [1] has as its target human RORγt ligand binding domain (RORγt LBD) (Homo sapiens (Human), UniProt P51449). Description: RORγt ThermoFluor® assay (thermal shift binding). The procedure, abridged: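 Thermal shift with 0.065 mg/mL RORγt LBD and 60 μM 1,8-ANS in 100 mM Hepes pH 7.0, 10 mM NaCl, 2.5 mM GSH, 0.002% Tween-20.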
Assay [2] deals with IL-17 production by CD4 T cells under conditions which favor Th17 differentiation. The experiment in a line: Human Th17 assay (IL-17 production by CD4 T cells). As to conditions: Homo sapiens, CD4+ T; read-out: Human Th17 Assay, IC50. The assay is classed as cell-based. The protocol:
The human Th17 assay tests the effect of RORγt modulatory compounds on IL-17 production by CD4 T cells under conditions which favor Th17 differentiation. Total CD4^+ T cells were isolated from the peripheral blood mononuclear cells (PBMC) of healthy donors using a CD4^+ T cell isolation kit II, following the manufacturer's instructions (Miltenyi Biotec). […] 50 μL of compound at titrated concentrations in DMSO were added into each well at final DMSO concentration at 0.2%. Cells were incubated for 1 hour, then 50 μL of Th17 cell differentiation medium was added to each well. […] Cells were cultured at 37° C. and 5% CO2 for 3 days. Supernatants were collected and the accumulated IL-17 in culture was measured by using MULTI-SPOT® Cytokine Plate following manufacture's instruction (Meso Scale Discovery). The plate was read using Sector Imager 6000, and IL-17 concentration was extrapolated from the standard curve. The IC50s were determined by GraphPad.

Setting [3] is: read-out: ThermoFluor® Assay, Kd.
Where [4] appears, read: HEK-293T, read-out: RORγt (FL) Reporter Assay A or B, % inhibition.

Sequence of human RORγt ligand binding domain (RORγt LBD) (P51449 other isoform, or with tags, fused parts or gaps): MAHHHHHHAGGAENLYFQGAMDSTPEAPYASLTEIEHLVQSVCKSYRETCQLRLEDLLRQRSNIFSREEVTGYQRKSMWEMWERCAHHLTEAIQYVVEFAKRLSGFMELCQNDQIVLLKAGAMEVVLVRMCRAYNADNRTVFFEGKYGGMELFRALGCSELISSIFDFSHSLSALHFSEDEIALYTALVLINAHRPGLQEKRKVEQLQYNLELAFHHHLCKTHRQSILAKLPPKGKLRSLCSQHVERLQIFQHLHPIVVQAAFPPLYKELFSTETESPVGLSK
Sequence of full-length human RORγt (P51449 other isoform, or with tags, fused parts or gaps): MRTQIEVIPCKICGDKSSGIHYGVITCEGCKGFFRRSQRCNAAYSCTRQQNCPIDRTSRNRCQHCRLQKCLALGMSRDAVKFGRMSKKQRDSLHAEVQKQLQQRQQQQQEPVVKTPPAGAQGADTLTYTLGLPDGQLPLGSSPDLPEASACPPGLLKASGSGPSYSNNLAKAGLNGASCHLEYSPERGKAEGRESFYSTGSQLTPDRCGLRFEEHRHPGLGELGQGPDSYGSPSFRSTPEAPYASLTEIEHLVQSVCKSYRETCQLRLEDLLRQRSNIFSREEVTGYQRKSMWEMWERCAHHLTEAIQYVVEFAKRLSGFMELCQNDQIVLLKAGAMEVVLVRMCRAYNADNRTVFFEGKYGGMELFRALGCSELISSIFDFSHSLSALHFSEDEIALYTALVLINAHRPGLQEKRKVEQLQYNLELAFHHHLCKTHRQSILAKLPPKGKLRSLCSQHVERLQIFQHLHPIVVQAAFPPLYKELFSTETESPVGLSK
Sequence of RORγT (P51450 other isoform, or with tags, fused parts or gaps): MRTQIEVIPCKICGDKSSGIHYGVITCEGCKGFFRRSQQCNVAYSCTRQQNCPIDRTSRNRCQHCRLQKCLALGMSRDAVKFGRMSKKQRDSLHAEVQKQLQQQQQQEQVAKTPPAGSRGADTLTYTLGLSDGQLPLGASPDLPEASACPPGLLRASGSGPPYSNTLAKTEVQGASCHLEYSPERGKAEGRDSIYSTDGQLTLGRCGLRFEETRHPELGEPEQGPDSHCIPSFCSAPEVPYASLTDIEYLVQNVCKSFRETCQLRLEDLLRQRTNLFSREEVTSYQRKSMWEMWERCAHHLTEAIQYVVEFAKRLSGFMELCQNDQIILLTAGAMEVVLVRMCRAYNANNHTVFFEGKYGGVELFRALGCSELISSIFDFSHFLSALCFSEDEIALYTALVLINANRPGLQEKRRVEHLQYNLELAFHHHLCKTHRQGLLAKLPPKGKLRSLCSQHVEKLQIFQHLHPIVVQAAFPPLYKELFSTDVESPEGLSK

As for `CC(=O)Nc1nc(C)c(S(=O)(=O)Nc2ccc(C(O)(C(F)(F)F)C(F)(F)F)cc2)s1` [SR1001], the Th17-dependent learned helplessness entry on RORγT is on record as “reduced Th17-dependent learned helplessness”.

For `COCCn1nc(C(=O)NC[C@H]2CC[C@H](S(C)(=O)=O)CC2)c(Cl)c1-c1ccc(N[C@H](C)C(F)(F)F)cc1OC` [Example 187, 4-Chloro-5-(2-methoxy-4-(((R)-1,1,1-trifluoropropan-2-yl)amino)phenyl)-1-(2-methoxyethyl)-N-(((1r,4R)-4-(methylsulfonyl)cyclohexyl)methyl)-1H-pyrazole-3-carboxamide], the inhibition at 6 µM at full-length human RORγt (HEK-293T, read-out: RORγt (FL) Reporter Assay A or B, % inhibition @ 6 μM, 6 μM compound concentration) is 104%. The IC50 worked out at 0.11 µM against full-length human RORγt and 0.054 µM in assay [2]. Also, the Kd in assay [1] (ThermoFluor® Assay, Kd) worked out at 0.018 µM.

`CCn1nc(C(=O)NC[C@H]2CC[C@H](S(C)(=O)=O)CC2)c(Cl)c1-c1ccc(CC(C)(C)C(F)(F)F)cc1Cl` [Example 165, 4-Chloro-5-(2-chloro-4-(3,3,3-trifluoro-2,2-dimethylpropyl)phenyl)-1-ethyl-N-(((1r,4r)-4-(methylsulfonyl)cyclohexyl)methyl)-1H-pyrazole-3-carboxamide]: the inhibition at 0.07 µM on full-length human RORγt (HEK-293T, 0.07 μM compound concentration (footnote *********), read-out: RORγt (FL) Reporter Assay A or B, % inhibition) was determined as 52%. In addition, the IC50 at full-length human RORγt worked out at 0.008 µM; in assay [2] it was 0.013 µM. In addition, in assay [1] (setting [3]), the Kd is 0.00045 µM.

With `Cc1c(C(=O)NC[C@]2(O)CC[C@@H](S(C)(=O)=O)CC2)nn(C)c1-c1ccc(CCCC(F)(F)F)cc1OC(F)F` [Example 161, 5-(2-(Difluoromethoxy)-4-(4,4,4-trifluorobutyl)phenyl)-N-(((1s,4s)-1-hydroxy-4-(methylsulfonyl)cyclohexyl)methyl)-1,4-dimethyl-1H-pyrazole-3-carboxamide], the inhibition at 3 µM at full-length human RORγt (HEK-293T, 3 μM compound concentration (footnote *), read-out: RORγt (FL) Reporter Assay A or B, % inhibition) is 81%. Also, the half-maximal inhibitory concentration (IC50) on full-length human RORγt stood at 0.0078 µM; in assay [2] it was 0.2 µM. In addition, in assay [1] (setting [3]), the Kd amounted to 0.032 µM.

On to `CCn1nc(C(=O)NC[C@H]2CC[C@H](S(C)(=O)=O)CC2)c(Cl)c1-c1ccc(C[C@H](C)C(F)(F)F)cc1OC` (single isomer, unassigned) [Example 3, 4-Chloro-1-ethyl-5-(2-methoxy-4-((S*)-3,3,3-trifluoro-2-methylpropyl)phenyl)-N-(((1r,4R)-4-(methylsulfonyl)cyclohexyl)methyl)-1H-pyrazole-3-carboxamide], for which the inhibition at 0.67 µM at full-length human RORγt (setting [4]) is 98%. Moreover, the results for the IC50 (against full-length human RORγt; in assay [2]) were 0.009 µM and 0.015 µM, respectively. Also, the Kd in assay [1] (ThermoFluor® Assay, Kd) came out at 0.00063 µM.

Turning to `CCn1nc(C(=O)NC[C@H]2CC[C@H](S(C)(=O)=O)CC2)c(C)c1-c1ccc(CC(C)(C)C(F)(F)F)cc1OC` [Example 227, 1-Ethyl-5-(2-methoxy-4-(3,3,3-trifluoro-2,2-dimethylpropyl)phenyl)-4-methyl-N-(((1r,4r)-4-(methylsulfonyl)cyclohexyl)methyl)-1H-pyrazole-3-carboxamide], the inhibition at 0.67 µM at full-length human RORγt (setting [4]) came to 92%. The results for the 50% inhibitory concentration (IC50) (against full-length human RORγt; in assay [2]) were 0.009 µM and 0.014 µM, respectively. The Kd in assay [1] (setting [3]) is 0.0011 µM.

As to `CCn1nc(C(=O)NC[C@]2(O)CC[C@@H](S(C)(=O)=O)CC2)c(Cl)c1-c1ccc(CC(C)C(F)(F)F)cc1OC(F)(F)F` (stereo partly shown) [Example 191, 4-Chloro-1-ethyl-N-(((1s,4s)-1-hydroxy-4-(methylsulfonyl)cyclohexyl)methyl)-5-(4-(3,3,3-trifluoro-2-methylpropyl)-2-(trifluoromethoxy)phenyl)-1H-pyrazole-3-carboxamide], on full-length human RORγt (setting [4]), the inhibition at 0.67 µM worked out at 69%. The figures for the half-inhibitory concentration (IC50) (against full-length human RORγt; in assay [2]) were 0.022 µM and 0.063 µM, respectively. Further, in assay [1] (setting [3]), the Kd came to 0.0015 µM.
